Source: patent US20030203035A1, “Allergen neutralization compositions” (The Procter & Gamble Company, priority 2000, published 2003)

Molecular target: T1, Der f 2 mite extract (Dermatophagoides farinae, UniProt Q00855)
T1 construct: Add 1.0 ml of 20 ug/ml Der f 2 mite extract; from tissue; host or cells: house dust mite extract (Dermatophagoides farinae)
T1 sequence (Q00855 18-146): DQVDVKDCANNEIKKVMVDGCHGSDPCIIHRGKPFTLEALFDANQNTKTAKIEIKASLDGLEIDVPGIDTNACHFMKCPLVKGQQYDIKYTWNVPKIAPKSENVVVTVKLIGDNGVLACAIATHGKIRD
Test: Efficacy Determination Protocol, ELISA (allergen neutralization)
Type: biochemical
Settings: for Average Absorbance / % of Allergen Remaining: 1.4 wt.% of ion; for Average Absorbance: 490 nm, water control 1.7; for % of Allergen Remaining: Der f 2, normalized to water control = 100
Excerpt: The efficacy of an allergen neutralization composition can be determined by the ELISA protocol. Enzyme-linked immunosorbent assay (“ELISA”) is a highly sensitive assay technique for detection and measurement of antigens or antibodies in solution. The assay uses enzyme-linked antigens or antibodies to amplify an antigen-antibody reaction. A single enzyme-linked antibody-antigen complex can convert orders of magnitude more of colorless substrate molecules into detectable colored products, thus considerably amplifying the original antigen-antibody reaction. The antigen or antibody is adsorbed onto the surface of the well of a microtiter plate, and all the relevant reactions take place in solution inside the well. While the following protocol will be easily understood by those skilled in the art, for a more detailed explanation please see Konishi, E. and Uehara, K. Enzyme-linked immunosorbent assay for quantifying antigens of Dermatophagoides farinae and D. pteronyssinus (Acari: Pyroglyphidae) in house dust samples, 1990, Entomologist Society of America, 27 (6), p. 993-998.
It is understood that those skilled in the art of allergen suppression will be aware of numerous variations to the protocol given below. For example, the monoclonal antibody may be substituted with a similar antibody, for example Der f 1 for Der f 2. But a standard, in this case water, is used and the results for the samples that contain active ingredients are normalized against the standard and the results reported as percentage of allergen remaining That is, the amount of allergen that is not neutralized. Thus, the allergen neutralization results for similar, but not identical antibodies should be substantially the same when normalized to the standard. Both Der f 1 and Der f 2 were tested for various compositions, but Der f 2 was chosen as the standard for the present Efficacy Determination Protocol because it is more difficult to neutralize. To be clear, the values for the % of allergen remaining that are reported in Table I will generally improve (that is, decrease) when tested with Der f 1.
At least two samples are prepared. One sample contains only distilled water and samples of one or more allergen neutralization compositions containing the allergen neutralization active, for example ZnCl2, tannin, etc. The samples are all treated according to the same protocol, and the distilled water sample is used as the control. All samples are prepared as follows:
1) Add 1.0 ml of 20 ug/ml Der f 2 mite extract to 0.8 ml of the sample composition (either the allergen neutralization composition or water for the control). Mix well and let sit for 1 hour at room temp.
2) Add 2.2 ml of 20% skim milk in Phosphate Buffer Saline (PBS).
3) Mix well by vortexing and centrifuge at 12000 rpm (approx. 17000×g) for 1 hour.
4) The supernatant is used for the ELISA protocol.
Each well of a microplate is coated at 4° C. overnight with 100 μl of Der f 2 monoclonal antibody (clone 15E11, from Asahi Breweries., AB-A-4) at a protein concentration of […] of Phosphate Buffer Saline (PBS), pH 7.4 containing 0.1% sodium azide. The monoclonal antibody is discarded and the plate is incubated with 100 μL of 1% BSA PBS containing 0.1% sodium azide for 1 hour. The plate is washed 3 times with PBS containing 0.05% Tween 20 (PBS-T). 100 μl of an allergen sample is added and incubated for 1 hour at 37° C.
Use 3× dilutions of a reference Dermatophagoides farinae crude extract (commercially available from LSL) to make the standard curve. The curve is made using 6.9 nanogram-mite extract equivalent/ml to 5 microgram-mite extract equivalent/ml. Wash plate with PBS-T for 3 times. 100 μl of Horse Radish Peroxidase (HRP) conjugated anti Der f 2 antibody (clone 13A4) is added at 40 ng/ml and the plate is incubated at 37° C. for 1 hour. The plate is then washed with PBS-T 3 times and then washed with water 3 times. […]

[1] = weight % of metal ion in the composition, inferred from Table III

O=S(=O)([O-])[O-].[Fe+2] [FeSO4]
Average Absorbance (pH 3.5): 1.13
% of Allergen Remaining (pH 3.5): 54%

[Cl-].[Cl-].[Zn+2] [ZnCl2, Zinc chloride]
Average Absorbance (pH 3.6): 0.70
% of Allergen Remaining (pH 3.6): 34%

[Cl][Sn][Cl] [SnCl2]
Average Absorbance (pH 2.1): 0.54
% of Allergen Remaining (pH 2.1): 32%
Average Absorbance (pH 3.2): 0.25
% of Allergen Remaining (pH 3.2): 18%
effective amount if 80% removal is necessary [1]: about 1.4%
effective amount to remove 50% of allergens [1]: less than 1.4%

[Cl][Fe][Cl] [FeCl2]
Average Absorbance (pH 2.9): 0.84
% of Allergen Remaining (pH 2.9): 44%

O=S(=O)([O-])[O-].[Sn+2] [SnSO4]
Average Absorbance (pH 2.0): 0.28
% of Allergen Remaining (pH 2.0): 22%
